In ChEMBL document CHEMBL1201862, “PubChem BioAssay data set” (2004):
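Interpolation was linear, between the two tested concentrations surrounding the appropriate level; five concentrations were tested over 48 hours in 96-well plates. GI50 = concentration required for 50% inhibition of growth.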 Active and inactive are the calls of the source. No stated cut-off is given here; in the data, active = GI50 up to about 1.1 µM and inactive = higher.

Legend:
Assay in all cases: NCI anticancer screen, dose series, 48 h
UO-31 = test system: UO-31
SNB-78 = test system: SNB-78
SK-OV-3 = test system: SK-OV-3
NCI-H522 = test system: NCI-H522
HCC 2998 = test system: HCC 2998
NCI-H23 = test system: NCI-H23
OVCAR-8 = test system: OVCAR-8
IGROV-1 = test system: IGROV-1
HT-29 = test system: HT-29
TK-10 = test system: TK-10
OVCAR-4 = test system: OVCAR-4
786-0 = test system: 786-0
CAKI-1 = test system: CAKI-1
SF-295 = test system: SF-295
CCRF-CEM = test system: CCRF-CEM
MOLT-4 = test system: MOLT-4
HOP-62 = test system: HOP-62
KM-20L2 = test system: KM-20L2

Measured: GI50

COc1cc2c(cc1OC)C(C(=O)O)C(c1ccccc1)N(C)C2=O (centres undefined)
inactive: UO-31 > 100 µM | SNB-78 > 100 µM | SK-OV-3 > 100 µM | NCI-H522 > 100 µM | HCC 2998 > 100 µM | NCI-H23 > 100 µM | OVCAR-8 > 100 µM | IGROV-1 > 100 µM | HT-29 > 100 µM | TK-10 > 100 µM | OVCAR-4 > 100 µM | 786-0 > 100 µM | CAKI-1 > 100 µM | SF-295 > 100 µM | CCRF-CEM > 100 µM | MOLT-4 > 100 µM | HOP-62 > 100 µM | KM-20L2 > 100 µM

CCC/C=C\C=C\C1(NS(=O)(=O)c2ccc(C)cc2)CCC(C(C)(C)C)CC1 (centres undefined)
inactive: UO-31 23.7 µM | SNB-78 19.1 µM | SK-OV-3 26.7 µM | NCI-H522 3.2 µM | HCC 2998 16.9 µM | NCI-H23 14.1 µM | OVCAR-8 > 10 µM | IGROV-1 27 µM | HT-29 15.5 µM | TK-10 24.9 µM | OVCAR-4 17.1 µM | 786-0 10.2 µM | CAKI-1 19.6 µM | SF-295 19.9 µM | CCRF-CEM 9.1 µM | MOLT-4 7.1 µM | HOP-62 20.7 µM | KM-20L2 16.9 µM

O=C1Cc2ccccc2CCc2ccsc21
inactive: UO-31 > 100 µM | SNB-78 > 100 µM | SK-OV-3 > 100 µM | NCI-H522 > 100 µM | HCC 2998 > 100 µM | NCI-H23 > 100 µM | OVCAR-8 > 100 µM | IGROV-1 > 100 µM | HT-29 > 100 µM | TK-10 > 100 µM | OVCAR-4 > 100 µM | 786-0 > 100 µM | CAKI-1 > 100 µM | SF-295 > 100 µM | CCRF-CEM > 100 µM | MOLT-4 > 100 µM | KM-20L2 > 100 µM

Cn1cccc(C(=O)c2ccccc2)c1=O
inactive: UO-31 > 100 µM | SNB-78 > 100 µM | SK-OV-3 > 100 µM | NCI-H522 > 100 µM | HCC 2998 > 100 µM | NCI-H23 > 100 µM | OVCAR-8 > 100 µM | IGROV-1 > 100 µM | HT-29 > 100 µM | TK-10 > 100 µM | OVCAR-4 > 100 µM | 786-0 > 100 µM | CAKI-1 > 100 µM | SF-295 > 100 µM | CCRF-CEM > 100 µM | MOLT-4 > 100 µM | HOP-62 > 100 µM | KM-20L2 > 100 µM

Cc1cc(C)nc(NS(=O)(=O)c2ccc(NC(=O)c3cccc4c(N)c5ccccc5nc34)cc2)n1
inactive: UO-31 > 100 µM | SNB-78 > 100 µM | SK-OV-3 > 100 µM | NCI-H522 > 100 µM | HCC 2998 67.1 µM | NCI-H23 > 100 µM | OVCAR-8 65.8 µM | IGROV-1 > 100 µM | TK-10 > 100 µM | OVCAR-4 > 100 µM | 786-0 > 100 µM | CAKI-1 > 100 µM | SF-295 > 100 µM | CCRF-CEM 26.2 µM | MOLT-4 35 µM | HOP-62 > 100 µM | KM-20L2 88.7 µM

Cc1cc(C(=C2C=CC(=[N+](C)C)C=C2)c2ccc([N+](C)(C)C)cc2)ccc1N(C)C
inactive: UO-31 26.3 µM | SNB-78 10.7 µM | SK-OV-3 15.8 µM | NCI-H522 15.9 µM | HCC 2998 13.8 µM | NCI-H23 10.1 µM | OVCAR-8 5.08 µM | IGROV-1 12.3 µM | HT-29 5.08 µM | TK-10 1.57 µM | OVCAR-4 15.8 µM | 786-0 21.6 µM | CAKI-1 18.2 µM | SF-295 5.2 µM | CCRF-CEM 2.48 µM | MOLT-4 4.28 µM | HOP-62 25.2 µM | KM-20L2 5.48 µM

CC(=O)C1CC=C(C)CC1 (centres undefined)
inactive: UO-31 > 100 µM | SNB-78 > 100 µM | SK-OV-3 > 100 µM | NCI-H522 > 100 µM | HCC 2998 > 100 µM | NCI-H23 > 100 µM | OVCAR-8 > 100 µM | IGROV-1 > 100 µM | HT-29 > 100 µM | TK-10 > 100 µM | OVCAR-4 > 100 µM | 786-0 > 100 µM | CAKI-1 > 100 µM | SF-295 > 100 µM | CCRF-CEM > 100 µM | MOLT-4 > 100 µM | HOP-62 > 100 µM | KM-20L2 > 100 µM

CCOC1(COP(=O)(OCc2ccccc2)OCc2ccccc2)COC(COP(=O)(OCc2ccccc2)OCc2ccccc2)(OCC)CO1 (centres undefined)
inactive: SNB-78 > 100 µM | SK-OV-3 > 100 µM | NCI-H522 > 100 µM | HCC 2998 > 100 µM | NCI-H23 > 100 µM | OVCAR-8 59 µM | IGROV-1 > 100 µM | HT-29 > 100 µM | TK-10 > 100 µM | OVCAR-4 4.61 µM | 786-0 > 100 µM | CAKI-1 > 100 µM | SF-295 > 100 µM | CCRF-CEM > 100 µM | MOLT-4 17.4 µM | HOP-62 > 100 µM | KM-20L2 > 100 µM

CC(=O)OCC1OC(OCc2ccccc2)C(Br)C(OC(C)=O)C1OC(C)=O (centres undefined)
inactive: SNB-78 > 100 µM | NCI-H522 > 100 µM | HCC 2998 > 100 µM | NCI-H23 > 100 µM | OVCAR-8 > 100 µM | IGROV-1 > 100 µM | HT-29 > 100 µM | TK-10 > 100 µM | OVCAR-4 > 100 µM | 786-0 > 100 µM | CAKI-1 > 100 µM | SF-295 > 100 µM | CCRF-CEM > 100 µM | MOLT-4 > 100 µM | HOP-62 > 100 µM | KM-20L2 > 100 µM

O=C(Nc1ccc(Nc2ccc(NC(=O)c3ccccc3)c3c2C(=O)c2ccccc2C3=O)c2c1C(=O)c1ccccc1C2=O)c1ccccc1
inactive: UO-31 > 100 µM | SNB-78 > 100 µM | SK-OV-3 > 100 µM | NCI-H522 > 100 µM | HCC 2998 > 100 µM | OVCAR-8 > 100 µM | IGROV-1 > 100 µM | TK-10 > 100 µM | OVCAR-4 > 100 µM | 786-0 52.5 µM | CAKI-1 > 100 µM | CCRF-CEM > 100 µM | MOLT-4 > 100 µM | HOP-62 > 100 µM | KM-20L2 > 100 µM

Cc1c(/C=N/NC(=O)c2ccc(Cl)cc2)c(=O)n(-c2ccccc2)n1C
inactive: UO-31 95.5 µM | SNB-78 > 100 µM | SK-OV-3 > 100 µM | NCI-H522 > 100 µM | HCC 2998 > 100 µM | NCI-H23 > 100 µM | OVCAR-8 > 100 µM | IGROV-1 > 100 µM | HT-29 > 100 µM | TK-10 > 100 µM | OVCAR-4 > 100 µM | 786-0 > 100 µM | SF-295 > 100 µM | CCRF-CEM > 100 µM | MOLT-4 > 100 µM | HOP-62 > 100 µM | KM-20L2 > 100 µM
